Experimental data from article PMC8913810, “New insights into the resistance mechanism for the BceAB-type transporter SaNsrFP” (Scientific Reports, 2022).
Like-named read-outs stand apart in the source and are kept apart here. Bridge positions count the residues as written; N and C are the ends. Square brackets hold non-standard residues; d marks the D form. Peptide text beside a SMILES is read from it. * marks the point of attachment. Ileψ(thiazoline)Cys = CC[C@H](C)[C@H](N)C1=N[C@H](C(=O)*)CS1; dOrn = NCCC[C@@H](N)C(=O)O

Assays:
[1] = system: L. lactis NZ9000Cm; assay: Cytoplasmic PGN precursor accumulation (HPLC/MS), empty-plasmid strain; type: cell-based, Lactococcus lactis; conditions: bacitracin 100 µg/ml added at OD600 1.2, 30 min at 30 °C, repeated once; HPLC/MS EIC 1148.4 and 1263.4
Description: (§1) Cells were grown in M17 medium supplemented with 0.5% glucose and 0.3 nM nisin overnight at 30 °C without shaking. The next day, 100 ml with 0.5% glucose and 0.3 nM nisin was inoculated with overnight cultures to OD600 = 0.1. When OD600 = 1.2 bacitracin (100 µg/ml) was added to the cultures to enrich cell wall precursors, and the cultures were incubated for an additional 30 min at 30 °C. This step was repeated once. (As a control, a second culture each was harvested before bacitracin was added at an OD600 = 1.2, and cell pellets were stored at − 20 °C) After incubation with bacitracin, the cells were harvested, and the cell pellets were stored at − 20 °C. The next day, the cell pellets were resuspended in 25 ml water and cooked for 60 min in boiling water to break the cells. Cell debris was removed by centrifugation (15 min, 500×g, 4 °C). […]
(§2) Five microliters of each sample were injected into an XCT6330 LC/MSD ultratrap system (Agilent Technologies) equipped with a Nucleosil 100 C18 column (3 μm × 100 mm × 2 mm internal diameter, Dr. Maisch GmbH). […] Extracted ion chromatograms (EICs) in negative ion mode for UDP-MurNAc-L-Ala-D-iGlu-L-Lys-D-Ala-D-Ala (m/z^−1 1148.34 ± 0.1) and UDP-MurNAc-L-Ala-D-iGlu-L-Lys-(D-Asp)-D-Ala-D-Ala (m/z^−1 1263.37 ± 0.1) were analyzed with Data Analysis (Bruker), exported and presented with GraphPad Prism 6.0.

[2] = system: L. lactis NZ9000NsrFH202AP; conditions: for Fold of resistance L. lactis NZ9000NsrFH202AP: IC50 of NZ9000NsrFH202AP divided by IC50 of NZ9000Cm; for IC50: read-out: IC50 (nM) L. lactis NZ9000NsrFH202AP, GM17, 5 µg/ml chloramphenicol, 0.3 nM nisin, 30 °C, 5 h, optical density, at least 3 biological replicates with 3 technical replicates each
Description: (§3) After adding the different antibiotics to the cultures of the strains L. lactis wild type (WT), L. lactis NZ9000Cm, L. lactis NZ9000SaNsrFP and L. lactis SaNsrFH202AP, the IC50 was determined.
(§4) The half maximal inhibitory concentration was determined according to Abts et al.[71]. Briefly, L. lactis NZ9000Cm, L. lactis NZ9000SaNsrFP and L. lactis NZ9000SaNsrFH202AP cells were grown in GM17 medium containing 5 µg/ml chloramphenicol and 0.3 nM nisin at 30 °C overnight. Fresh GM17Cm medium with a sublethal amount of nisin (0.3 nM) was inoculated with overnight cultures to an OD600 of 0.1. A 96-well plate was prepared with a serial dilution of examined antibiotics (concentration ranges ramoplanin 0.014 nM–3.75 µM; lysobactin 0.002 nM–10 µM; vancomycin 0.02 nM–80 µM; nisin 0.0001 nM–0.5 µM) and subsequently the cell culture was added and plates were incubated at 30 °C for 5 h. Afterwards, the optical density was measured, and the IC50 values for each strain and antibiotic were calculated.

[3] = system: L. lactis NZ9000NsrFP; conditions: for Fold of resistance L. lactis NZ9000NsrFP: IC50 of NZ9000NsrFP divided by IC50 of NZ9000Cm; for IC50: read-out: IC50 (nM) L. lactis NZ9000NsrFP, GM17, 5 µg/ml chloramphenicol, 0.3 nM nisin, 30 °C, 5 h, optical density, at least 3 biological replicates with 3 technical replicates each
Description: as §3, §4

[4] = system: L. lactis NZ9000Cm; conditions: read-out: IC50 (nM) L. lactis NZ9000Cm; GM17, 5 µg/ml chloramphenicol, 0.3 nM nisin, 30 °C, 5 h, optical density; at least 3 biological replicates with 3 technical replicates each
Description: as §3, §4

[5] = system: L. lactis NZ9000NisT; conditions: for Fold of resistance L. lactis NZ9000NisT: IC50 of NZ9000NisT relative to NZ9000Cm; for IC50: read-out: IC50 (nM) L. lactis NZ9000NisT, GM17, 5 µg/ml chloramphenicol, 0.3 nM nisin, 30 °C, 5 h, optical density
[6] = system: L. lactis NZ9000NisT; assay: Growth curve, NisT-producing strain; type: cell-based, Lactococcus lactis; conditions: 1 µM bacitracin + 1 mM ZnCl2 or 4 µM bacitracin without zinc; 0.3 nM nisin; monitored over 500 min, 30 °C
Text: (§5) To investigate whether SaNsrFP confers resistance against bacitracin and Zn-bacitracin, binding to the lipid carrier UPP[20],[52], we analyzed the influence of the expression of the sansrfp gene. The sensitive L. lactis strain NZ9000, served as an indicator strain for these studies which was transformed with a plasmid encoding the nsrfp gene. We included two controls where the strains were transformed with (I) an empty plasmid (L. lactis NZ9000Cm) (II) a plasmid containing a variant of the nsrfp gene (L. lactis NZ9000SaNsrFH202AP)[34]. This NZ9000SaNsrFH202AP strain is used since the transporter carries a mutation in the H-loop, a highly conserved region of ABC transporters, and as a result is not able to hydrolyze ATP[47]. […] The growth of L. lactis NZ9000Cm, L. lactis NZ9000SaNsrFP, L. lactis NZ9000SaNsrFH202AP and L. lactis NZ9000NisT was monitored online over a time period of 500 min (Fig. 2a,b). After adding the different antibiotics to the culture, the growth curve was determined. […]
(§6) To detect the growth behavior of the different strains, precultures of L. lactis NZ9000Cm, L. lactis NZ9000SaNsrFP and L. lactis NZ9000SaNsrFH202AP cells were grown in GM17 medium with 5 or 10 µg/ml chloramphenicol and 0.3 nM nisin at 30 °C overnight. […] Growth was detected at OD584 every 10 min with a FLUOstar OPTIMA (BMG Lab technology).

[7] = system: L. lactis NZ9000SaNsrFP; assay: Growth curve, SaNsrFP-producing strain; type: cell-based, Lactococcus lactis; conditions: 1 µM bacitracin + 1 mM ZnCl2 or 4 µM bacitracin without zinc; 0.3 nM nisin; compared with untreated control strain
Text: as §5, §6

[8] = system: L. lactis NZ9000SaNsrFH202AP; assay: Cytoplasmic PGN precursor accumulation (HPLC/MS), ATP-hydrolysis deficient mutant strain; type: cell-based, Lactococcus lactis; conditions: bacitracin 100 µg/ml added at OD600 1.2, 30 min at 30 °C, repeated once; compared with NZ9000Cm
Description: as §1, §2

[9] = system: L. lactis NZ9000Cm; assay: Growth curve, empty-plasmid strain; type: cell-based, Lactococcus lactis; conditions: 1 µM bacitracin + 1 mM ZnCl2 or 4 µM bacitracin without zinc; 0.3 nM nisin; monitored over 500 min, 30 °C
Text: as §5, §6

[10] = system: L. lactis NZ9000SaNsrFP; assay: Cytoplasmic PGN precursor accumulation (HPLC/MS), SaNsrFP-producing strain; type: cell-based, Lactococcus lactis; conditions: bacitracin 100 µg/ml added at OD600 1.2, 30 min at 30 °C, repeated once; HPLC/MS EIC 1148.4 and 1263.4
Description: as §1, §2

[11] = system: L. lactis NZ9000SaNsrFH202AP; assay: Growth curve, ATP-hydrolysis deficient mutant strain; type: cell-based, Lactococcus lactis; conditions: 4 µM bacitracin without ZnCl2; 0.3 nM nisin; monitored over 500 min
Text: as §5, §6

[12] = system: L. lactis NZ9000NsrFP; conditions: fold changes described earlier for SaNsrFP; ref 34 (Reiners et al.); cited from earlier work
Text: No significant differences were detected between NZ9000NsrFP and NZ9000NsrFH202AP with ramoplanin. […] IC50 values decreased to similar levels in L. lactis NZ9000SaNsrFH202AP (one, two ...

[13] = system: SaNSRS236A; set-up: method as in earlier work; conditions: low-level resistance; ref 32 (Khosa et al.); cited from earlier work

Molecule	PGN precursor accumulation in the cytoplasm, L. lactis NZ9000Cm [1]	Fold of resistance L. lactis NZ9000NsrFH202AP [2] [fold]	IC50 [2] [nM]	Fold of resistance L. lactis NZ9000NsrFP [3] [fold]	Fold of resistance L. lactis NZ9000NsrFP ([3]; listed as bacitracin) [fold]	IC50 [3] [nM]	IC50 [4] [nM]	Fold of resistance L. lactis NZ9000NisT [5] [fold]	IC50 [5] [nM]	Growth behaviour of L. lactis NZ9000NisT [6]	Growth behaviour of L. lactis NZ9000SaNsrFP [7]	PGN precursor accumulation in the cytoplasm, L. lactis NZ9000SaNsrFH202AP [8]	Growth behaviour of L. lactis NZ9000Cm [9]	PGN precursor accumulation in the cytoplasm, L. lactis NZ9000SaNsrFP [10]	Growth behaviour of L. lactis NZ9000SaNsrFH202AP [11]	Fold of resistance conferred by SaNsrFP [12] [fold]	Resistance against nisin, inactive protease variant SaNSRS236A [13] [fold]
CC[C@H](C)[C@H](N)C1=N[C@H](C(=O)N[C@@H](CC(C)C)C(=O)N[C@H](CCC(=O)O)C(=O)N[C@H](C(=O)N[C@H]2CCCCNC(=O)[C@H](CC(N)=O)NC(=O)[C@@H](CC(=O)O)NC(=O)[C@H](Cc3cnc[nH]3)NC(=O)[C@@H](Cc3ccccc3)NC(=O)[C@H]([C@@H](C)CC)NC(=O)[C@@H](CCCN)NC2=O)[C@@H](C)CC)CS1 [Bacitracin, bacitracin] ({Ileψ(thiazoline)Cys}-L[dE]IK[dOrn]I[dF]H[dD]N; lactam 4-C (inferred); N-terminus assumed)	presence of the characteristic PGN precursors	13	12900	349 ± 65	350	328000	938 ± 94	1 ± 0	733	Severe growth inhibition	did not show reduced growth	reduced PGN precursor accumulation	Severe growth inhibition	no accumulation of the PGN precursors	reduced growth		
CN[C@H](CC(C)C)C(=O)N[C@H]1C(=O)N[C@@H](CC(N)=O)C(=O)N[C@H]2C(=O)N[C@H]3C(=O)N[C@H](C(=O)N[C@H](C(=O)O)c4cc(O)cc(O)c4-c4cc3ccc4O)[C@H](O)c3ccc(c(Cl)c3)Oc3cc2cc(c3O[C@@H]2O[C@H](CO)[C@@H](O)[C@H](O)[C@H]2O[C@H]2C[C@](C)(N)[C@H](O)[C@H](C)O2)Oc2ccc(cc2Cl)[C@H]1O [Vancomycin, vancomycin]		2 ± 1	325 ± 117	5 ± 1		1080 ± 264	214	1 ± 0	133 ± 9								
gallidermin																12	
lysobactin		3 ± 2	102 ± 52.2	6 ± 1		182 ± 37	30.7	1 ± 0	25 ± 3								
nisin																16	2.6
ramoplanin A2		1 ± 0	92 ± 21	2 ± 1		121 ± 34	73 ± 18	1.3 ± 0	95								
